Earlier results on one compound are cited in patent US11236044B2, “Selective inhibitors of 12(S)-lipoxygenase (12-LOX) and methods for use of the same” (THE REGENTS OF THE UNIVERSITY OF MICHIGAN, priority 2018, dated 2022).

The target of data set [1] is T1, bovine cyclooxygenase (“COX”)-1 (Bos taurus, UniProt O62664).
T1 sequence (O62664 25-600): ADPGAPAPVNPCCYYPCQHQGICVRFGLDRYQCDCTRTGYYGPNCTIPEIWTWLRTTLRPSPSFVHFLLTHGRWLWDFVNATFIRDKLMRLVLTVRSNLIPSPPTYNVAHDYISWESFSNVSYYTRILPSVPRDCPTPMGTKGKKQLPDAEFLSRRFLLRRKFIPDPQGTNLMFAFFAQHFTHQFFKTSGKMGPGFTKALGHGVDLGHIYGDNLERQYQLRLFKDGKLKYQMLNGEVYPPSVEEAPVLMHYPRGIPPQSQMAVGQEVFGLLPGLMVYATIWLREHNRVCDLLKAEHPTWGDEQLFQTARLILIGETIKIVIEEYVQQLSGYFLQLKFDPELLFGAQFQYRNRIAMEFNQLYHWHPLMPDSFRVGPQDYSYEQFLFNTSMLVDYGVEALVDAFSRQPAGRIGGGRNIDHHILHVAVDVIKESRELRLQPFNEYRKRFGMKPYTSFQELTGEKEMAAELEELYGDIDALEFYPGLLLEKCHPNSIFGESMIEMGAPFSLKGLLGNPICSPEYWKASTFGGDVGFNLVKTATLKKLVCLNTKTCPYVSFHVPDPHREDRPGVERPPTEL
The note with it: 12-LOX versus bovine COX-1; cited from earlier work.

For data set [2] the following is noted: in vivo; cited from earlier work.
For data set [3] the following is noted: cited from earlier work.
Data set [4] has as its target T2, epithelial 15-human lipoxygenase type-2 (Homo sapiens, UniProt O15296).
T2 sequence (O15296 1-676): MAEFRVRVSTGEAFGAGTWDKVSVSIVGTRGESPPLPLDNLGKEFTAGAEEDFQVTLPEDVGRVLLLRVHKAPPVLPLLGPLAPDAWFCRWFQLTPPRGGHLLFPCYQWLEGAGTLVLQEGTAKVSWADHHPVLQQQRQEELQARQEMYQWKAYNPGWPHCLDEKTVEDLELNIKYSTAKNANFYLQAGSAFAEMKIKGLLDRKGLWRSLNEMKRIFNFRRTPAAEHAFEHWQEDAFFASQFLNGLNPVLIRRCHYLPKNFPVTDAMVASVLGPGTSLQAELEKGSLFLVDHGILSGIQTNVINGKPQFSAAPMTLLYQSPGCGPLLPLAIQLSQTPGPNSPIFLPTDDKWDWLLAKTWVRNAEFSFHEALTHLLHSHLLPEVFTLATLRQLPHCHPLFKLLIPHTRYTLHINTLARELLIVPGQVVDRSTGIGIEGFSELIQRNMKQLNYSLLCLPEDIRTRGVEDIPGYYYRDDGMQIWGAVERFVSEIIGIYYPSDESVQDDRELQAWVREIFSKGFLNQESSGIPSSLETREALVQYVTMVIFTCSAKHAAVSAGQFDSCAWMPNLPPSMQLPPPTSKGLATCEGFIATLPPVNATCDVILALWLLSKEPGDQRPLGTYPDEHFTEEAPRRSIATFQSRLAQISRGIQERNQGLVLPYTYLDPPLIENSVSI
Particulars: 12-LOX versus paralog; cited from earlier work.

Data set [5] concerns the target T3, human COX-2 (Homo sapiens, UniProt P35354).
T3 sequence (P35354 18-604): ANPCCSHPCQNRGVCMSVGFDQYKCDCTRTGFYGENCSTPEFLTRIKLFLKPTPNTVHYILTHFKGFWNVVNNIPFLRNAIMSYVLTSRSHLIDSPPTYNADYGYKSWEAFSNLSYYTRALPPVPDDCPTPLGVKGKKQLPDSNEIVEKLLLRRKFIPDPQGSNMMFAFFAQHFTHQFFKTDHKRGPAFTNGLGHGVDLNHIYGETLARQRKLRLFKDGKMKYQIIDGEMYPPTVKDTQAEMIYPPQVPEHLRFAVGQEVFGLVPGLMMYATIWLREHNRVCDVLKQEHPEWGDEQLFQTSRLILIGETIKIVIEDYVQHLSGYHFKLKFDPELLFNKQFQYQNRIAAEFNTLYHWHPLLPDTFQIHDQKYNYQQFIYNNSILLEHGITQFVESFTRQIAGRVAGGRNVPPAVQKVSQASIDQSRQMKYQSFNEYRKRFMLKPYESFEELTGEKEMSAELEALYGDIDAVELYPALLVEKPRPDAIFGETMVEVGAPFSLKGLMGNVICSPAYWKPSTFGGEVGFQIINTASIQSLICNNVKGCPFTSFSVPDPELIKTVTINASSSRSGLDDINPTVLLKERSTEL
Particulars: 12-LOX versus human COX-2; cited from earlier work.

Data set [6] has as its target T4, 5-human lipoxygenase (Homo sapiens, UniProt P09917).
T4 sequence (P09917 1-674): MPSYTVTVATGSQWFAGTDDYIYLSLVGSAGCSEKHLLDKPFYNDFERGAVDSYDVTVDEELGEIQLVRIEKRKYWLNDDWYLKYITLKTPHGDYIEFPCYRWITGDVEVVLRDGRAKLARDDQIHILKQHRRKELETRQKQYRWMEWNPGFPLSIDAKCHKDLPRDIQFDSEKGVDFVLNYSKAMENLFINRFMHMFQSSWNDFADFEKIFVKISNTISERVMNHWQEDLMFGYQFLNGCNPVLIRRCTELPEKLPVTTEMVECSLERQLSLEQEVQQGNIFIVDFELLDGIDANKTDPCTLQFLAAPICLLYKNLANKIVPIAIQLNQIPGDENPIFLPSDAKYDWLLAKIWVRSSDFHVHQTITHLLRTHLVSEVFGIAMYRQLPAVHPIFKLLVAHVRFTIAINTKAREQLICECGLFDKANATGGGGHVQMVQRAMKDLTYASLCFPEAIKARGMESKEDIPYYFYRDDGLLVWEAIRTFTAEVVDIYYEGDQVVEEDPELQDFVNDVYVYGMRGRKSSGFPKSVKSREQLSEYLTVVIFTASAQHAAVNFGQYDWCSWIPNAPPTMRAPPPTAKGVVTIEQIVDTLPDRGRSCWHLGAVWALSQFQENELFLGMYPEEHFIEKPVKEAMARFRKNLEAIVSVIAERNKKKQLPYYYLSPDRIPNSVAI
The note with it: 12-LOX versus paralog; cited from earlier work.

Data set [7] has as its system thrombus formation and vessel occlusion. The note with it: cited from earlier work.
The conditions of data set [8]: cited from earlier work. The source holds these as a separate data set.
For data set [9], the target named is reticulocyte 15-human lipoxygenase type-1 (Homo sapiens, UniProt P16050). The note with it: 12-LOX versus paralog; cited from earlier work.
Sequence of reticulocyte 15-human lipoxygenase type-1 (P16050 whole entry): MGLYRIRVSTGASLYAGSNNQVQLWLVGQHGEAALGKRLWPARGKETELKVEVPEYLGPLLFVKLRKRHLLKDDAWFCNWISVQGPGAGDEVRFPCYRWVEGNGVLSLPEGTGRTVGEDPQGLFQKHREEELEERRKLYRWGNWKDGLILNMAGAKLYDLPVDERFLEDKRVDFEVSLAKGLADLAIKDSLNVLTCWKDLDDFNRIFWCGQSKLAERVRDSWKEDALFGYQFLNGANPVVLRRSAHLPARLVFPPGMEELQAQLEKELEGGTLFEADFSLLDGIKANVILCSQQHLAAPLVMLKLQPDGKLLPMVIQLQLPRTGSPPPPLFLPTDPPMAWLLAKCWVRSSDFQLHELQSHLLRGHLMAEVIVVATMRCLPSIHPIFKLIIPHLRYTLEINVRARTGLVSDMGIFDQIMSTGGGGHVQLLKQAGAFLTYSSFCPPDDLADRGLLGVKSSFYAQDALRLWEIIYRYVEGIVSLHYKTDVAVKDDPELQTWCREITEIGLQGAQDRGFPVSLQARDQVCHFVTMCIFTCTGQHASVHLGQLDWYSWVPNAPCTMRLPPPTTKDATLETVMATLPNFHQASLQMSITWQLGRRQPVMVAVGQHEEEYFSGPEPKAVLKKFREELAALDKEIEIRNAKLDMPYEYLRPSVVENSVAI

On to `COc1cccc(CNc2ccc(S(=O)(=O)Nc3nc4ccccc4s3)cc2)c1O` [ML355], for which the “selectivity versus bovine COX-1” value in data set [1] is reported as above 100 fold. Besides, the pharmacokinetics result in [2] is reported as “reasonable pharmacokinetics”. For the same compound, the solubility entry in data set [3] is “limited solubility”. Also, the “selectivity versus epithelial 15-human lipoxygenase type-2” value in data set [4] was above 50 fold. In addition, in data set [5], the “selectivity versus human COX-2” value is listed as above 100 fold. Moreover, the “selectivity versus 5-human lipoxygenase” value in data set [6] is above 50 fold. For the same compound, in data set [7], the “thrombus formation and vessel occlusion in vivo” value was “impair thrombus formulation and vessel occlusion in vivo”. Further, in data set [7] (in vivo), the effects on hemostasis result is “minimal affects on hemostasis”. The “tolerance in preclinical studies” value in data set [8] is given as “relatively good tolerance”. In data set [9], the “selectivity versus reticulocyte 15-human lipoxygenase type-1” value is listed as above 50 fold.
